# Laboratory results reported in publication PMC8765437, “GSK3640254 Is a Novel HIV-1 Maturation Inhibitor with an Optimized Virology Profile” (Antimicrobial Agents and Chemotherapy, 2022).
# Experiments:
# [1] = test system: T1, p25 cleavage in HIV-1 Gag VLPs; assay: Gag p25 cleavage assay (delipidated VLPs, HIV-1 protease, LC-MS); type: biochemical; conditions: A364V VLP; 3 μM compound
# T1 construct: made in house
# Protocol: (§1) Virus-like particles of 3 genotypes were constructed and tested. In addition to WT VLP, a VLP with V370 deleted (ΔV370; a genotype characteristic of subtype C viruses) and one with the known resistance substitution A364V were analyzed. […] A364V is a substitution adjacent to the p25/p24 cleavage site (L363/A364), and in this assay (Fig. 3C), neither MI inhibited production of p24 in the presence of HIV-1 protease.
# (§2) As previously described ([22]), VLPs (∼100 ng) were diluted (1:10) in 10 μL of VLP buffer (50 mM MES [pH 6.0], 100 mM NaCl, 2 mM EDTA, and 2 mM dithiothreitol) supplemented with 0.06% Triton X-100 and incubated at room temperature for 10 to 30 min to remove lipid bilayers. […] Samples (1 μL) were taken at 0-, 0.5-, 2-, and 4-h time points and underwent trypsin digestion. […] Peptide samples were then analyzed by liquid chromatography with mass spectrometry using a nanoAcquity ultraperformance liquid chromatography system (Waters Corporation, Milford, MA) interfaced with an LTQ XL Orbitrap mass spectrometer (Thermo Fisher Scientific, Waltham, MA). […]
# (§3) Signals for SP1 peptides were normalized to an internal protease fragment at the C-terminal end of Gag, and data were analyzed using Thermo Xcalibur processing software 3.0.63 and Thermo Xcalibur Quanbrowser software 3.0.63 (Thermo Fisher Scientific) as described previously ([23]).
# [2] = test system: p25 cleavage in HIV-1 Gag VLPs; assay: as above; type: biochemical; conditions: WT and ΔV370 VLPs; 3 μM compound
# Protocol: as §1, §2, §3
# [3] = Estimation of minimum plasma concentration required for clinical efficacy; set-up: species or system human; conditions: multiples higher than PBA EC90 of the vast majority of HIV-1 isolates
# Excerpt: These viruses were chosen to be representative of the population of Gag genes as a whole, including known polymorphism-containing viruses with reduced susceptibility to GSK’795, as well as SDM viruses with multiple changes that had previously been identified as relevant for susceptibility to earlier MIs ([7], [11]).
structure (smiles),measurement,setting,value
C=C(C)[C@@H]1CC[C@]2(NCCN3CCS(=O)(=O)CC3)CC[C@]3(C)[C@H](CC[C@@H]4[C@@]5(C)CC=C(C6=CC[C@@](CF)(C(=O)O)CC6)C(C)(C)[C@@H]5CC[C@]43C)[C@@H]12 [GSK’254],inhibition of p25 cleavage,[1],failed to impact cleavage
same,inhibition of p25 cleavage,[2],significantly better inhibition of p25 cleavage than GSK’795
same,estimated Cmin (target human steady-state serum concentration),[3],150 nM
